Assay results from patent EP0103381B1, “Substituted anthra(1,9-cd)pyrazol-6(2H)-ones” (WARNER-LAMBERT COMPANY, priority 1982, dated 1984).
Read-outs that look alike come from different tables or passages of the source.

Assays:
[1] = tested on: lymphocytic leukemia P388; test: in vivo lymphocytic leukemia P388 test; set-up: species or system mice; conditions: Mus musculus, P388, ip, 720 h; for response vs control in vivo at 1.56 mg/kg: P388, Dose 1.56 mg/kg intraperitoneally; for response vs control in vivo at 25 mg/kg: P388, Dose 25 mg/kg intraperitoneally
Outline: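 Efficacy was judged from the treated/control survival-time ratio over 30 days (T/C×100 >125% as criterion). Mice (CD2F, 6–7/group) received i.p. P388 ascites cells, then compound i.p. at varied doses twice, four days apart.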

Escherichia coli = test: agar plate paper-disc inhibition zone screening; format: cell-based; conditions: read-out: Inhibition Zone Diameter mm (Dose mg/ml) E. Coli; for zone of inhibition at 500 µg/mL: Dose 0.5 mg/ml; for zone of inhibition at 1000 µg/mL: Dose 1.0 mg/ml
Outline: (§1)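 Inoculum: saline suspension, 20-35% transmittancy, in molten agar. Discs 12.7 mm, compound 3,000/1,000/500/100/10 mcg/ml, solvent <10%. 37°C, 18-20 h; zone diameter in mm.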

Streptococcus faecalis = test: agar plate paper-disc inhibition zone screening; format: cell-based; conditions: Enterococcus faecalis, read-out: Inhibition Zone Diameter mm (Dose mg/ml) S. Faecalis
Outline: as §1

Bacillus subtilis = test: agar plate paper-disc inhibition zone screening; format: cell-based; conditions: read-out: Inhibition Zone Diameter mm (Dose mg/ml) B. Subtilis; for zone of inhibition at 500 µg/mL: Dose 0.5 mg/ml; for zone of inhibition at 1000 µg/mL: Dose 1.0 mg/ml
Outline: as §1

Aerobacter aerogenes = test: agar plate paper-disc inhibition zone screening; format: cell-based; conditions: Klebsiella aerogenes, read-out: Inhibition Zone Diameter mm (Dose mg/ml) A. Aerogenes; for zone of inhibition at 500 µg/mL: Dose 0.5 mg/ml; for zone of inhibition at 1000 µg/mL: Dose 1.0 mg/ml
Outline: as §1

Penicillium avellaneum = test: agar plate paper-disc inhibition zone screening; format: cell-based; conditions: Hamigera avellanea, read-out: Inhibition Zone Diameter mm (Dose mg/ml) P. Avellaneum
Outline: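 Mycelia and spores from a six-day 28°C agar culture, suspended in saline with 0.05% Tween 80 at 20% transmittancy, were seeded into molten agar trays. Compounds at 3,000, 1,000, 500, 100 and 10 mcg/ml (solvent <10%) were applied on 12.7 mm paper discs. After at least 20-24 h incubation, inhibition zone diameter was measured in mm.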

[2] = two single doses four days apart, read-out: T/C × 100 (Percent)
[3] = P388, Dose 3.12 mg/kg intraperitoneally, two single doses four days apart, read-out: T/C × 100 (Percent)
[4] = P388, Dose 6.25 mg/kg intraperitoneally, two single doses four days apart, read-out: T/C × 100 (Percent)
[5] = P388, Dose 12.5 mg/kg intraperitoneally, two single doses four days apart, read-out: T/C × 100 (Percent)
[6] = P388, Dose 50 mg/kg intraperitoneally, two single doses four days apart, read-out: T/C × 100 (Percent)

CCN(CC)CCNc1ccc2c3c(nn2CCNCCO)-c2c(O)ccc(O)c2C(=O)c13 [Example 57, 5-[[2-(Diethylamino)ethyl]amino]-7,10-dihydroxy-2-[2-[(2-hydroxyethyl)amino]ethyl]anthra[1,9-cd]pyrazol-6(2H)-one]
response vs control in vivo at 1.56 mg/kg [1, 2]: 131%
response vs control in vivo at 3.12 mg/kg [1, 3]: 148%
response vs control in vivo at 6.25 mg/kg [1, 4]: 154%
response vs control in vivo at 12.5 mg/kg [1, 5]: 177%
response vs control in vivo at 25 mg/kg [1, 2]: 190%
response vs control in vivo at 50 mg/kg [1, 6]: 241%
zone of inhibition at 500 µg/mL (Escherichia coli): 14 mm
zone of inhibition at 1000 µg/mL (Streptococcus faecalis; Dose 1.0 mg/ml): 14 mm
zone of inhibition at 500 µg/mL (Bacillus subtilis): 15 mm
zone of inhibition at 500 µg/mL (Aerobacter aerogenes): 14 mm
zone of inhibition at 3000 µg/mL (Penicillium avellaneum; Dose 3.0 mg/ml): 14 mm

NCCNc1ccc2c3c(nn2CCO)-c2c(O)ccc(O)c2C(=O)c13 [Example 37, 5-[(2-Aminoethyl)amino]-7,10-dihydroxy-2-(2-hydroxyethyl)anthra[1,9-cd]pyrazol-6(2H)-one]
response vs control in vivo at 6.25 mg/kg [1, 4]: 135%
response vs control in vivo at 12.5 mg/kg [1, 5]: 145%
response vs control in vivo at 25 mg/kg [1, 2]: 146%
response vs control in vivo at 50 mg/kg [1, 6]: 162%
zone of inhibition at 3000 µg/mL (Escherichia coli; Dose 3.0 mg/ml): 0 mm
zone of inhibition at 3000 µg/mL (Streptococcus faecalis; Dose 3.0 mg/ml): 0 mm
zone of inhibition at 1000 µg/mL (Bacillus subtilis): 15 mm
zone of inhibition at 1000 µg/mL (Aerobacter aerogenes): 15 mm
zone of inhibition at 3000 µg/mL (Penicillium avellaneum; Dose 3.0 mg/ml): 0 mm

CN(C)CCNCCNc1ccc2c3c(nn2CCNCCO)-c2c(O)ccc(O)c2C(=O)c13 [Example 63]
response vs control in vivo at 3.12 mg/kg [1, 3]: 152%
response vs control in vivo at 6.25 mg/kg [1, 4]: 169%
zone of inhibition at 1000 µg/mL (Escherichia coli): 15 mm
zone of inhibition at 3000 µg/mL (Streptococcus faecalis; Dose 3.0 mg/ml): 16 mm
zone of inhibition at 3000 µg/mL (Bacillus subtilis; Dose 3.0 mg/ml): 18 mm
zone of inhibition at 1000 µg/mL (Aerobacter aerogenes): 14 mm
zone of inhibition at 3000 µg/mL (Penicillium avellaneum; Dose 3.0 mg/ml): 0 mm

CCN(CC)CCNc1ccc2c3c(nn2CCO)-c2c(O)ccc(O)c2C(=O)c13 [Example 35, 5-[[2-(Diethylamino)ethyl]amino]-7,10-dihydroxy-2-(2-hydroxyethyl)anthra[1,9-cd]pyrazol-6(2H)-one]
response vs control in vivo at 25 mg/kg [1, 2]: 128%
response vs control in vivo at 37.5 mg/kg ([1]; P388, Dose 37.5 mg/kg intraperitoneally, two single doses four days apart, read-out: T/C × 100 (Percent)): 135%
response vs control in vivo at 75 mg/kg ([1]; P388, Dose 75 mg/kg intraperitoneally, two single doses four days apart, read-out: T/C × 100 (Percent)): 135%
response vs control in vivo at 150 mg/kg ([1]; P388, Dose 150 mg/kg intraperitoneally, two single doses four days apart, read-out: T/C × 100 (Percent)): 155%
response vs control in vivo at 200 mg/kg ([1]; P388, Dose 200 mg/kg intraperitoneally, two single doses four days apart, read-out: T/C × 100 (Percent)): 167%
response vs control in vivo at 300 mg/kg ([1]; P388, Dose 300 mg/kg intraperitoneally, two single doses four days apart, read-out: T/C × 100 (Percent)): 177%
response vs control in vivo at 400 mg/kg ([1]; P388, Dose 400 mg/kg intraperitoneally, two single doses four days apart, read-out: T/C × 100 (Percent)): 190%
zone of inhibition at 3000 µg/mL (Escherichia coli; Dose 3.0 mg/ml): 0 mm
zone of inhibition at 3000 µg/mL (Streptococcus faecalis; Dose 3.0 mg/ml): 14 mm
zone of inhibition at 500 µg/mL (Bacillus subtilis): 14 mm
zone of inhibition at 3000 µg/mL (Aerobacter aerogenes; Dose 3.0 mg/ml): 0 mm
zone of inhibition at 3000 µg/mL (Penicillium avellaneum; Dose 3.0 mg/ml): 0 mm

NCCNc1ccc2c3c(nn2CCNCCO)-c2c(O)ccc(O)c2C(=O)c13 [Example 55, 5-[(2-Aminoethyl)amino]-7,10-dihydroxy-2-[2-[(2-hydroxyethyl)amino]ethyl]anthra[1,9-cd]pyrazol-6(2H)-one]
response vs control in vivo at 0.39 mg/kg ([1]; P388, Dose 0.39 mg/kg intraperitoneally, two single doses four days apart, read-out: T/C × 100 (Percent)): 175%
response vs control in vivo at 0.78 mg/kg ([1]; P388, Dose 0.78 mg/kg intraperitoneally, two single doses four days apart, read-out: T/C × 100 (Percent)): 182%
response vs control in vivo at 1.56 mg/kg [1, 2]: 173%
zone of inhibition at 1000 µg/mL (Escherichia coli): 14 mm
zone of inhibition at 3000 µg/mL (Streptococcus faecalis; Dose 3.0 mg/ml): 0 mm
zone of inhibition at 3000 µg/mL (Bacillus subtilis; Dose 3.0 mg/ml): 14 mm
zone of inhibition at 3000 µg/mL (Aerobacter aerogenes; Dose 3.0 mg/ml): 15 mm
zone of inhibition at 3000 µg/mL (Penicillium avellaneum; Dose 3.0 mg/ml): 0 mm

CCN(CC)CCn1nc2c3c(c(NCCNC)ccc31)C(=O)c1c(O)ccc(O)c1-2 [Example 31, 2-[2-(Diethylamino)ethyl]-7,10-dihydroxy-5-[[2-(methylamino)ethyl]amino]anthra[1,9-cd]pyrazol-6(2H)-one]
response vs control in vivo at 3.12 mg/kg [1, 3]: 154%
response vs control in vivo at 6.25 mg/kg [1, 4]: 163%
response vs control in vivo at 12.5 mg/kg [1, 5]: 191%
response vs control in vivo at 25 mg/kg [1, 2]: 219%
response vs control in vivo at 50 mg/kg [1, 6]: 172%
zone of inhibition at 500 µg/mL (Escherichia coli): 16 mm
zone of inhibition at 3000 µg/mL (Streptococcus faecalis; Dose 3.0 mg/ml): 14 mm
zone of inhibition at 1000 µg/mL (Bacillus subtilis): 17 mm
zone of inhibition at 500 µg/mL (Aerobacter aerogenes): 16 mm
zone of inhibition at 3000 µg/mL (Penicillium avellaneum; Dose 3.0 mg/ml): 0 mm

CN(C)CCCn1nc2c3c(c(NCCN)ccc31)C(=O)c1c(O)ccc(O)c1-2 [Example 94, 5-[(2-Aminoethyl)amino]-2-[3-(dimethylamino)propyl]-7,10-dihydroxyanthra[1,9-cd]pyrazol-6(2H)-one]
response vs control in vivo at 3.12 mg/kg [1, 3]: 191%
response vs control in vivo at 6.25 mg/kg [1, 4]: 186%
response vs control in vivo at 12.5 mg/kg [1, 5]: 224%
zone of inhibition at 3000 µg/mL (Escherichia coli; Dose 3.0 mg/ml): 15 mm
zone of inhibition at 3000 µg/mL (Streptococcus faecalis; Dose 3.0 mg/ml): 0 mm
zone of inhibition at 3000 µg/mL (Bacillus subtilis; Dose 3.0 mg/ml): 0 mm
zone of inhibition at 3000 µg/mL (Aerobacter aerogenes; Dose 3.0 mg/ml): 15 mm
zone of inhibition at 3000 µg/mL (Penicillium avellaneum; Dose 3.0 mg/ml): 0 mm

CN1CCN(c2ccc3c4c(nn3CCNCCO)-c3c(O)ccc(O)c3C(=O)c24)CC1 [Example 64, 7,10-Dihydroxy-2-[2-[(2-hydroxyethyl)amino]ethyl]-5-(4-methyl-1-piperazinyl)anthra[1,9-cd]pyrazol-6(2H)-one]
response vs control in vivo at 6.25 mg/kg [1, 4]: 163%
response vs control in vivo at 12.5 mg/kg [1, 5]: 169%
response vs control in vivo at 25 mg/kg [1, 2]: 150%
zone of inhibition at 1000 µg/mL (Escherichia coli): 14 mm
zone of inhibition at 3000 µg/mL (Streptococcus faecalis; Dose 3.0 mg/ml): 0 mm
zone of inhibition at 3000 µg/mL (Bacillus subtilis; Dose 3.0 mg/ml): 0 mm
zone of inhibition at 500 µg/mL (Aerobacter aerogenes): 17 mm
zone of inhibition at 3000 µg/mL (Penicillium avellaneum; Dose 3.0 mg/ml): 0 mm

NCCCNc1ccc2c3c(nn2CCNCCO)-c2c(O)ccc(O)c2C(=O)c13 [Example 58, 5-[(3-Aminopropyl)amino]-7,10-dihydroxy-2-[2-[(2-hydroxyethyl)amino]ethyl]anthra[1,9-cd]pyrazol-6(2H)-one]
response vs control in vivo at 3.12 mg/kg ([1]; read-out: T/C × 100 (Percent), P388, Dose 3.12 mg/kg intraperitoneally, two single doses four days apart): 165%
response vs control in vivo at 6.25 mg/kg ([1]; read-out: T/C × 100 (Percent), P388, Dose 6.25 mg/kg intraperitoneally, two single doses four days apart): 165%
response vs control in vivo at 12.5 mg/kg ([1]; read-out: T/C × 100 (Percent), P388, Dose 12.5 mg/kg intraperitoneally, two single doses four days apart): 177%
response vs control in vivo at 50 mg/kg ([1]; read-out: T/C × 100 (Percent), P388, Dose 50 mg/kg intraperitoneally, two single doses four days apart): 254%
response vs control in vivo at 100 mg/kg ([1]; read-out: T/C × 100 (Percent), P388, Dose 100 mg/kg intraperitoneally, two single doses four days apart): 131%
zone of inhibition at 3000 µg/mL (Escherichia coli): 15 mm
zone of inhibition at 3000 µg/mL (Streptococcus faecalis): 0 mm
zone of inhibition at 3000 µg/mL (Bacillus subtilis): 0 mm
zone of inhibition at 3000 µg/mL (Aerobacter aerogenes): 14 mm
zone of inhibition at 3000 µg/mL (Penicillium avellaneum): 0 mm

O=C1c2c(O)ccc(O)c2-c2nn(CCNCCO)c3ccc(NCCCNCCO)c1c23 [Example 62, 7,10-Dihydroxy-2-[2-[(2-hydroxyethyl)amino]ethyl]-5-[[3-[(2-hydroxyethyt)amino]propyl]amino]anthra[1,9-cd] pyrazol-6(2H)-one]
response vs control in vivo at 3.12 mg/kg [1, 3]: 173%
zone of inhibition at 500 µg/mL (Escherichia coli): 14 mm
zone of inhibition at 3000 µg/mL (Streptococcus faecalis; Dose 3.0 mg/ml): 14 mm
zone of inhibition at 1000 µg/mL (Bacillus subtilis): 16 mm
zone of inhibition at 500 µg/mL (Aerobacter aerogenes): 14 mm
zone of inhibition at 3000 µg/mL (Penicillium avellaneum; Dose 3.0 mg/ml): 0 mm
